Results from patent publication US12568972B2, “Pyridazinol compounds and derivatives, preparation methods, herbicidal compositions and applications thereof” (Qingdao Kingagroot Chemical Compound Co., Ltd., priority 2018, dated 2026).

Experiments:
Assay in all cases: Post-emergence test, weed control effect
Type in all cases: in vivo
Conditions in all cases: after 3 weeks
Chenopodiaceae = system: Chenopodiaceae
How it was run: (§1)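 Score 0-10 (10 = completely dead, 1 = below 20%, 0 = no effect) from fresh-weight growth inhibition, read 3 weeks after a post-emergence spray. Greenhouse pot plants at 2-3 leaves; spray solution acetone/Tween-80/water with 80% vegetable oil methyl ester synergist at 1500 g/ha.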

Amaranthus retroflexus = system: Amaranthus retroflexus
How it was run: as §1

Rorippa indica = system: Rorippa indica
How it was run: as §1

Veronica polita = system: Veronica polita
How it was run: as §1

COc1cccc(-c2nnc(C(F)(F)F)cc2O)c1F [Compound 68]
10: weed control effect (activity level), Chenopodiaceae (Chenopodiaceae; dose 1000 g/ha) | weed control effect (activity level), Amaranthus retroflexus (Amaranthus retroflexus; dose 1000 g/ha) | weed control effect (activity level), Rorippa indica (Rorippa indica; dose 1000 g/ha) | weed control effect (activity level), Veronica polita (Veronica polita; dose 1000 g/ha)

O=C(Oc1cc(C(F)(F)F)nnc1-c1ccc(C(F)(F)F)cc1)c1cccs1 [Compound 1-106]
10: weed control effect, Chenopodiaceae (activity level) (Chenopodiaceae; Dose 3000 g/ha) | weed control effect, Amaranthus retroflexus (activity level) (Amaranthus retroflexus; Dose 3000 g/ha) | weed control effect, Rorippa indica (activity level) (Rorippa indica; Dose 3000 g/ha) | weed control effect, Veronica polita (activity level) (Veronica polita; Dose 3000 g/ha)

Cn1ncc(CC(F)(F)F)c1-c1nnc(C(F)(F)F)cc1O [Compound 825]
10: weed control effect (activity level), Chenopodiaceae (Chenopodiaceae; Dose 3000 g/ha) | weed control effect (activity level), Amaranthus retroflexus (Amaranthus retroflexus; Dose 3000 g/ha) | weed control effect (activity level), Rorippa indica (Rorippa indica; Dose 3000 g/ha) | weed control effect (activity level), Veronica polita (Veronica polita; Dose 3000 g/ha)

CC(C)(C)C(=O)Oc1cc(C(F)(F)F)nnc1-c1ccc(C(F)(F)F)nc1 [Compound 1-9]
10: weed control effect, Chenopodiaceae (activity level) (Chenopodiaceae; Dose 3000 g/ha) | weed control effect, Amaranthus retroflexus (activity level) (Amaranthus retroflexus; Dose 3000 g/ha) | weed control effect, Rorippa indica (activity level) (Rorippa indica; Dose 3000 g/ha) | weed control effect, Veronica polita (activity level) (Veronica polita; Dose 3000 g/ha)

CC(C)CC(CC(C)C)=NOc1cc(C(F)(F)F)nnc1-c1ccc(Cl)cc1 [Compound 1-180]
10: weed control effect, Chenopodiaceae (activity level) (Chenopodiaceae; Dose 3000 g/ha) | weed control effect, Amaranthus retroflexus (activity level) (Amaranthus retroflexus; Dose 3000 g/ha) | weed control effect, Rorippa indica (activity level) (Rorippa indica; Dose 3000 g/ha) | weed control effect, Veronica polita (activity level) (Veronica polita; Dose 3000 g/ha)

Cc1ccc(-c2nnc(C(F)(F)F)cc2OC(=O)c2ccccc2C)cc1 [Compound 1-80]
10: weed control effect, Chenopodiaceae (activity level) (Chenopodiaceae; Dose 3000 g/ha) | weed control effect, Amaranthus retroflexus (activity level) (Amaranthus retroflexus; Dose 3000 g/ha) | weed control effect, Rorippa indica (activity level) (Rorippa indica; Dose 3000 g/ha) | weed control effect, Veronica polita (activity level) (Veronica polita; Dose 3000 g/ha)

CCCCCCCCOC(=O)Oc1cc(C(F)(F)F)nnc1-c1ccc(C(F)(F)F)cc1 [Compound 1-40]
10: weed control effect, Chenopodiaceae (activity level) (Chenopodiaceae; Dose 3000 g/ha) | weed control effect, Amaranthus retroflexus (activity level) (Amaranthus retroflexus; Dose 3000 g/ha) | weed control effect, Rorippa indica (activity level) (Rorippa indica; Dose 3000 g/ha) | weed control effect, Veronica polita (activity level) (Veronica polita; Dose 3000 g/ha)

Cc1cc(F)ncc1-c1nnc(C(F)(F)F)cc1O [Compound 221]
10: weed control effect (activity level), Chenopodiaceae (Chenopodiaceae; dose 2000 g/ha) | weed control effect (activity level), Amaranthus retroflexus (Amaranthus retroflexus; dose 2000 g/ha) | weed control effect (activity level), Rorippa indica (Rorippa indica; dose 2000 g/ha) | weed control effect (activity level), Veronica polita (Veronica polita; dose 2000 g/ha)

Oc1cc(C(F)(F)F)nnc1-c1cnccc1F [Compound 964]
10: weed control effect (activity level), Chenopodiaceae (Chenopodiaceae; Dose 3000 g/ha) | weed control effect (activity level), Amaranthus retroflexus (Amaranthus retroflexus; Dose 3000 g/ha) | weed control effect (activity level), Rorippa indica (Rorippa indica; Dose 3000 g/ha) | weed control effect (activity level), Veronica polita (Veronica polita; Dose 3000 g/ha)

O=[N+]([O-])c1cc(-c2nnc(C(F)(F)F)cc2O)ccc1F [Compound 66]
10: weed control effect (activity level), Chenopodiaceae (Chenopodiaceae; dose 1000 g/ha) | weed control effect (activity level), Amaranthus retroflexus (Amaranthus retroflexus; dose 1000 g/ha) | weed control effect (activity level), Rorippa indica (Rorippa indica; dose 1000 g/ha) | weed control effect (activity level), Veronica polita (Veronica polita; dose 1000 g/ha)

Cc1ccc(-c2nnc(C(F)(F)F)cc2O)cn1 [Compound 974]
10: weed control effect (activity level), Chenopodiaceae (Chenopodiaceae; Dose 3000 g/ha) | weed control effect (activity level), Amaranthus retroflexus (Amaranthus retroflexus; Dose 3000 g/ha) | weed control effect (activity level), Rorippa indica (Rorippa indica; Dose 3000 g/ha) | weed control effect (activity level), Veronica polita (Veronica polita; Dose 3000 g/ha)

Oc1cc(C(F)(F)F)nnc1-c1cc(F)cc(Br)c1 [Compound 49]
10: weed control effect (activity level), Chenopodiaceae (Chenopodiaceae; dose 1000 g/ha) | weed control effect (activity level), Amaranthus retroflexus (Amaranthus retroflexus; dose 1000 g/ha) | weed control effect (activity level), Rorippa indica (Rorippa indica; dose 1000 g/ha) | weed control effect (activity level), Veronica polita (Veronica polita; dose 1000 g/ha)

O=[N+]([O-])c1cc(-c2nnc(C(F)(F)F)cc2O)ccc1Br [Compound 755]
10: weed control effect (activity level), Chenopodiaceae (Chenopodiaceae; Dose 3000 g/ha) | weed control effect (activity level), Amaranthus retroflexus (Amaranthus retroflexus; Dose 3000 g/ha) | weed control effect (activity level), Rorippa indica (Rorippa indica; Dose 3000 g/ha) | weed control effect (activity level), Veronica polita (Veronica polita; Dose 3000 g/ha)

Cc1cc(-c2nnc(C(F)(F)F)cc2O)ccc1Cl [Compound 72]
10: weed control effect (activity level), Chenopodiaceae (Chenopodiaceae; dose 1000 g/ha) | weed control effect (activity level), Amaranthus retroflexus (Amaranthus retroflexus; dose 1000 g/ha) | weed control effect (activity level), Rorippa indica (Rorippa indica; dose 1000 g/ha) | weed control effect (activity level), Veronica polita (Veronica polita; dose 1000 g/ha)

Oc1cc(C(F)(F)F)nnc1-c1ccnc(Cl)c1Cl [Compound 222]
10: weed control effect (activity level), Chenopodiaceae (Chenopodiaceae; dose 2000 g/ha) | weed control effect (activity level), Amaranthus retroflexus (Amaranthus retroflexus; dose 2000 g/ha) | weed control effect (activity level), Rorippa indica (Rorippa indica; dose 2000 g/ha) | weed control effect (activity level), Veronica polita (Veronica polita; dose 2000 g/ha)

Cc1n[nH]c(C)c1-c1nnc(C(F)(F)F)cc1O [Compound 543]
10: weed control effect (activity level), Chenopodiaceae (Chenopodiaceae; Dose 3000 g/ha) | weed control effect (activity level), Amaranthus retroflexus (Amaranthus retroflexus; Dose 3000 g/ha) | weed control effect (activity level), Rorippa indica (Rorippa indica; Dose 3000 g/ha) | weed control effect (activity level), Veronica polita (Veronica polita; Dose 3000 g/ha)

Cn1ncc(F)c1-c1nnc(C(F)(F)F)cc1O [Compound 804]
10: weed control effect (activity level), Chenopodiaceae (Chenopodiaceae; Dose 3000 g/ha) | weed control effect (activity level), Amaranthus retroflexus (Amaranthus retroflexus; Dose 3000 g/ha) | weed control effect (activity level), Rorippa indica (Rorippa indica; Dose 3000 g/ha) | weed control effect (activity level), Veronica polita (Veronica polita; Dose 3000 g/ha)

CCCCC(CCCC)=NOc1cc(C(F)(F)F)nnc1-c1cccc([N+](=O)[O-])c1 [Compound 1-178]
10: weed control effect, Chenopodiaceae (activity level) (Chenopodiaceae; Dose 3000 g/ha) | weed control effect, Amaranthus retroflexus (activity level) (Amaranthus retroflexus; Dose 3000 g/ha) | weed control effect, Rorippa indica (activity level) (Rorippa indica; Dose 3000 g/ha) | weed control effect, Veronica polita (activity level) (Veronica polita; Dose 3000 g/ha)
